Data on 88 compounds can be found in ChEMBL document CHEMBL5441456, “ASAP - SARS-CoV-2 nsp3 macrodomain dose response” (2024).

The structures appear in SMILES notation. Where “and” joins values, the source holds several entries; their conditions need not be identical. Identical values can stand only once.

The assay deals with Replicase polyprotein 1ab (Severe acute respiratory syndrome coronavirus 2, UniProt P0DTD1). Nature of the assay: Functional biochemical assay to identify treatments for viral infectious disease that targets SARS-COV-2 nsp3 macrodomain, whereby the mechanism of action displaces an ADP-Ribose modified peptide from the binding site. Utilizing a time-resolved fluorescence method to measure binding by reading the emitted fluorescence intensity in two wavelengths.
With `O[C@H]1C[C@](CNc2ncnc3[nH]ccc23)(c2ccccc2)C1`, the IC50 – broadly, the concentration that inhibits the measured activity by half – was above 124 µM.

On to `O=C(OCc1ccc(Cl)nc1)c1ncnc2[nH]ccc12`, for which the half-maximal inhibitory concentration (IC50) was above 99.5 µM.

The compound `Cc1cccc(Cl)c1-n1sc(=O)n(CC2CC2)c1=O` had an IC50 of 23 µM.

In turn, `O=C(c1ccccc1)N1CCC(c2ccn3ncc(C(=O)N4CCc5nc[nH]c5C4)c3c2)CC1` yielded a half-inhibitory concentration (IC50) above 99.5 µM.

`O=C(O)c1cnc(C(=O)N2CCC(c3ccn4ncc(C(=O)N5CCCCC5)c4c3)CC2)cn1` came in with an IC50 above 99.5 µM.

`OC[C@@]1(Cc2ccc(F)cc2)CCN(c2ncnc3[nH]ccc23)C1`: the IC50 is above 99.5 µM.

With `Cc1ccc2c(c1)C[C@@H](C(=O)N(C)CC[C@@H](Nc1ncnc3[nH]ccc13)C(C)C)S2`, the IC50 is above 99.5 µM.

The compound `O=C(OCc1cccc(Cl)n1)c1ncnc2[nH]ccc12` gave an IC50 above 124 µM.

As to `O=C(Nc1cnc2[nH]ncc2c1)C1CCN(c2ccc3nncn3n2)CC1`, the half-maximal inhibitory concentration (IC50) is above 124 µM.

`COc1cccc(CSC[C@@H](NC(=O)c2ncnc3[nH]ccc23)C(=O)O)c1`: the 50% inhibitory concentration (IC50) is above 99.5 µM.

`CC(C)[C@@H](Nc1ncnc2[nH]ccc12)c1nc2ccccc2[nH]1` had a half-inhibitory concentration (IC50) of 96.6 µM.

As to `FC(F)(F)CO[C@@H]1CCCN(c2ncnc3[nH]ccc23)C1`, the IC50 is above 124 µM.

Compound `O=C(O)c1cn(CCNC(=O)c2ncnc3[nH]ccc23)cn1` registered an IC50 above 99.5 µM.

With `Cc1[nH]c2ncnc(NCc3ccco3)c2c1C`, the IC50 was above 99.5 µM.

`O=C(c1c[nH]c(=O)cn1)N1CCC(c2ccn3ncc(C(=O)N4CCCCC4)c3c2)CC1` registered an IC50 of 78.4 µM.

With `CS(=O)(=O)NC1CCC(Nc2ccc([C@@H](CC(=O)O)NC(=O)c3c[nH]c4ncncc34)cc2)CC1` (stereo partly drawn), the half-inhibitory concentration (IC50) is above 99.5 µM.

On to `O=C(OCc1ncccc1Cl)c1ncnc2[nH]ccc12`, for which the IC50 is above 99.5 µM.

`O=C(N[C@@H](C(=O)O)C1Cc2ccccc2C1)c1ncnc2[nH]ccc12` had an IC50 above 99.5 µM.

`O=C(c1ncc[nH]1)N1CCC(c2ccn3ncc(C(=O)N4CCCCC4)c3c2)CC1` displayed a concentration for half-maximal inhibition (IC50) above 99.5 µM.

With `Cc1[nH]c2ncnc(NC(=O)c3ncn(-c4ccccc4)n3)c2c1C`, the IC50 is above 99.5 µM.

Regarding `Brc1ccc(-n2nnnc2Sc2ncnc3[nH]ccc23)cc1`, the half-inhibitory concentration (IC50) was above 124 µM.

Take `Cc1nc(C)c(CC(=O)Nc2cnc3[nH]ncc3c2)c(=O)[nH]1`: the IC50 was above 99.5 µM.

Consider `Cc1ccc2snc(C(=O)N(C)CC[C@@H](Nc3ncnc4[nH]ccc34)C(C)C)c2c1`, for which the IC50 was above 99.5 µM.

In the case of `O=C(O)c1sccc1C(=O)N1CCC(c2ccn3ncc(C(=O)N4CCCCC4)c3c2)CC1`, the half-maximal inhibitory concentration (IC50) turned out to be 38 µM.

In turn, `CC(C)[C@H]1N(c2ncnc3[nH]ccc23)CC12CCOCC2` gave an IC50 above 99.5 µM.

Regarding `Cc1ncnc2c1C[C@@H](C(=O)N(C)CC[C@@H](Nc1ncnc3[nH]ccc13)C(C)C)CC2`, the half-inhibitory concentration (IC50) is above 99.5 µM.

`O=C(c1cn2ncccc2n1)N1CCC(c2ccn3ncc(C(=O)N4CCCCC4)c3c2)CC1` yielded an IC50 above 99.5 µM.

`Cc1[nH]c2ncnc(NC(=O)[C@@H]3CCO[C@@H]3C)c2c1C` gave an IC50 of 122 µM.

`C[C@@H](CO)Nc1ncnc2[nH]c(C(=O)OC(C)(C)C)cc12` registered an IC50 above 124 µM.

Take `Cc1nc2ccc(C(=O)N(C)CC[C@@H](Nc3ncnc4[nH]ccc34)C(C)C)cc2s1`: the 50% inhibitory concentration (IC50) is above 99.5 µM.

In the case of `Cn1cc([C@@H](Nc2ncnc3[nH]ccc23)c2ccc(F)cc2)cn1`, the 50% inhibitory concentration (IC50) is above 99.5 µM.

Turning to `O=C(NCc1cc2n(n1)CCCC2)c1cc2cncnc2[nH]1`, the IC50 was above 124 µM.

Consider `C[C@@H](Cc1ccc(Cl)s1)Nc1ccc([C@@H](CC(=O)O)NC(=O)c2ncnc3[nH]ccc23)cc1`, for which the IC50 is 46.5 µM and 46.7 µM.

For `O=C(N[C@@H](C(=O)O)c1ccc2c(c1)CCO2)c1ncnc2[nH]ccc12`, the IC50 was 78.4 µM and 74.6 µM.

For `O=C(Nc1ccccc1)Nc1ccc(C(=O)NC2c3cccc(O)c3CC2C(=O)O)cc1` (stereo not drawn), the half-maximal inhibitory concentration (IC50) is 1.02 µM and 1.06 µM and 650 nM and 440 nM (3×) and 535 nM and 555 nM and 628 nM and 598 nM and 632 nM (2×) and 644 nM and 653 nM (2×) and 470 nM and 462 nM and 430 nM and 474 nM and 540 nM and 599 nM and 592 nM and 435 nM and 316 nM and 338 nM and 701 nM and 439 nM and 411 nM and 374 nM (2×) and 353 nM (2×) and 447 nM and 847 nM and 925 nM and 461 nM and 794 nM and 731 nM and 432 nM and 1.1 µM and 317 nM and 406 nM and 649 nM and 516 nM and 384 nM and 402 nM and 289 nM and 506 nM and 262 nM and 224 nM.

For `Cc1cccc(C)c1-n1nnnc1CSc1ncnc2[nH]cnc12`, the IC50 was above 99.5 µM.

Regarding `CO[C@@H]1CCCN(C(=O)c2cnn3ccc(C4CCN(C(=O)c5ccccc5)CC4)cc23)C1`, the IC50 is above 99.5 µM.

`CC(C)[C@@H]1C(=O)NCCN1c1ncnc2[nH]ccc12` registered an IC50 of 35.3 µM.

`CC(C)[C@@H](Nc1ncnc2[nH]ccc12)C(N)=O` showed an IC50 of 30.7 µM.

The compound `CC(C)(NC(=O)c1ncnc2[nH]ccc12)c1cc(C(=O)O)[nH]n1` gave a 50% inhibitory concentration (IC50) above 99.5 µM.

In turn, `O=C(O)c1ccc(C(=O)N2CCC(c3ccn4ncc(C(=O)N5CCCCC5)c4c3)CC2)o1` had an IC50 of 68.1 µM.

The compound `C=CCn1c(Sc2ncnc3[nH]ccc23)nc2sccc2c1=O` showed a concentration for half-maximal inhibition (IC50) above 99.5 µM.

`O=C(N[C@H]1CCC[C@H]1C(=O)O)c1cnn2ccc(C3CCN(C(=O)c4ccccc4)CC3)cc12` gave a half-inhibitory concentration (IC50) of 35.8 µM.

The compound `CC[C@@H]1C[C@@H](C(=O)Nc2ncnc3[nH]c(C)c(C)c23)CCO1` came in with an IC50 above 124 µM.

For the compound `CC(C)[C@@H](CCN(C)C(=O)c1cccc2cc(F)ccc12)Nc1ncnc2[nH]ccc12`, the IC50 is above 99.5 µM.

On to `Cc1nccc(C(=O)N2CCC(c3ccn4ncc(C(=O)N5CCCCC5)c4c3)CC2)n1`, for which the IC50 is above 99.5 µM.

In the case of `CC(C)OCCNC(=O)c1cc2c(=O)n3ccccc3nc2n1C`, the IC50 is above 124 µM.

Compound `Cc1csc(NC(=O)CSC[C@@H](NC(=O)c2ncnc3[nH]ccc23)C(=O)O)n1` showed a 50% inhibitory concentration (IC50) above 99.5 µM.

On to `O=C(Nc1ccc(C(=O)NCc2c(C(=O)O)[nH]c3ccccc23)cc1)NC1CC1`, for which the half-maximal inhibitory concentration (IC50) came out at 13.6 µM.

`NS(=O)(=O)c1ccccc1CNc1ncnc2[nH]ccc12` registered a half-maximal inhibitory concentration (IC50) above 124 µM.

In the case of `Cc1n[nH]c(C)c1C(=O)N1CCC(c2ccn3ncc(C(=O)N4CCCCC4)c3c2)CC1`, the concentration for half-maximal inhibition (IC50) was above 99.5 µM.

As to `O=C(c1nnn[nH]1)N1CCC(c2ccn3ncc(C(=O)N4CCCCC4)c3c2)CC1`, the IC50 came to 28.3 µM.

`O=C(c1cnc[nH]1)N1CCC(c2ccn3ncc(C(=O)N4CCCCC4)c3c2)CC1` came in with an IC50 above 99.5 µM.

The compound `c1ccc(-c2cc(CNc3ncnc4[nH]ccc34)on2)cc1` came in with an IC50 above 124 µM.

Turning to `C[C@H]1C[C@H]1c1nnc(Nc2ccc([C@@H](CC(=O)O)NC(=O)c3ncnc4[nH]ccc34)cc2)o1`, the half-maximal inhibitory concentration (IC50) is 7.86 µM and 6.04 µM.

In turn, `O=C(CCN(Cc1cccc(Cl)c1)C(=O)c1ccc(F)cn1)N1CCNCC1` registered an IC50 above 99.5 µM.

In turn, `O=C(c1cccnc1S)N1CCC(c2ccn3ncc(C(=O)N4CCCCC4)c3c2)CC1` had an IC50 of 61.6 µM.

Consider `O=C(c1cc(O)ccn1)N1CCC(c2ccn3ncc(C(=O)N4CCCCC4)c3c2)CC1`, for which the IC50 was above 99.5 µM.

Turning to `O=C(Nc1ncnc2c(C(=O)Nc3ccccc3C(=O)N3CCCC3)csc12)NC1CC1`, the IC50 was above 99.5 µM.

The compound `CC(C)[C@@H](CCN(C)C(=O)c1cc2nccnc2cc1F)Nc1ncnc2[nH]ccc12` yielded an IC50 above 99.5 µM.

The compound `O=C(O)c1cn(CCCNC(=O)c2ncnc3[nH]ccc23)nn1` had an IC50 above 99.5 µM.

Compound `OC[C@@H](Nc1ncnc2[nH]c(I)cc12)c1ccccc1` displayed a half-maximal inhibitory concentration (IC50) above 124 µM.

In the case of `COc1ccc2c(c1)CCN(c1ncnc3[nH]ccc13)[C@H]2C(C)C`, the IC50 was 14.2 µM and 12 µM.

`CC(C)[C@@H](Nc1ncnc2[nH]ccc12)c1cccs1` came in with an IC50 of 14.9 µM.

Turning to `Cn1cc([C@@H](Nc2ncnc3[nH]ccc23)C2CCC2)cn1`, the IC50 came to 15 µM.

`Cc1cc(NCc2cnc3c(c2)NC(=O)CO3)cnc1C` yielded an IC50 above 124 µM.

The compound `Cc1[nH]c2ncnc(NC(=O)C3CC(C(F)(F)F)C3)c2c1C` (stereo not drawn) had an IC50 above 99.5 µM.

With `Cc1n[nH]nc1C(=O)N1CCC(c2ccn3ncc(C(=O)N4CCCCC4)c3c2)CC1`, the IC50 was above 99.5 µM.

On to `COc1ccccc1C[C@@H](Nc1ncnc2[nH]ccc12)C(C)C`, for which the concentration for half-maximal inhibition (IC50) stood at 97.5 µM.

In turn, `O=C(O)c1ccsc1C(=O)N1CCC(c2ccn3ncc(C(=O)N4CCCCC4)c3c2)CC1` registered an IC50 of 58.9 µM.

Turning to `CC(C)[C@@H](Nc1ncnc2[nH]ccc12)C(F)F`, the IC50 was 15.2 µM.

Turning to `Cc1nc(C(=O)N2CCC(c3ccn4ncc(C(=O)N5CCCCC5)c4c3)CC2)c(=O)[nH]c1C`, the IC50 is above 99.5 µM.

In turn, `c1cc(-c2nnc(Sc3ncnc4[nH]ccc34)[nH]2)ccn1` came in with an IC50 above 124 µM.

As to `CC(C)c1c[nH]nc1NC(=O)c1ccc(NC(=O)Nc2ccccc2)cc1`, the IC50 is above 99.5 µM.

`CC(C)[C@@H](Nc1ncnc2n[nH]cc12)c1cnn(C)c1` gave an IC50 of 43.1 µM.

On to `CC(C)(C)n1cc([C@H]2N(c3ncnc4[nH]ccc34)CC23CCOCC3)cn1`, for which the IC50 was above 99.5 µM.

Compound `O=C(c1cccc(Br)c1)N1CCC(c2ccn3ncc(C(=O)N4CCCCC4)c3c2)CC1` gave an IC50 above 124 µM.

In turn, `Cn1nc(C(=O)O)cc1C(=O)N1CCC(c2ccn3ncc(C(=O)N4CCCCC4)c3c2)CC1` returned an IC50 above 99.5 µM.

The compound `Cn1nc(C(=O)N2CCC(c3ccn4ncc(C(=O)N5CCCCC5)c4c3)CC2)cc1C(=O)O` yielded a concentration for half-maximal inhibition (IC50) of 66.4 µM.

For the compound `Cc1ccc(-c2n[nH]cc2CNc2cnc3[nH]ncc3c2)o1`, the IC50 was above 124 µM.

Regarding `Cn1ncc2c(NCc3ncccc3O)ncnc21`, the 50% inhibitory concentration (IC50) was above 124 µM.

Compound `O=C(c1ccccc1)N1CCC(c2ccn3ncc(C(=O)N4CCCC[C@H](O)C4)c3c2)CC1` showed a 50% inhibitory concentration (IC50) above 99.5 µM.

As for `CC(=O)Nc1ccc(S(=O)(=O)NNc2ncnc3sccc23)cc1`, the half-inhibitory concentration (IC50) is above 99.5 µM.

`CC(C)[C@@H](CCN(C)C(=O)c1nn(C)c2ccc(F)cc12)Nc1ncnc2[nH]ccc12` gave a concentration for half-maximal inhibition (IC50) above 99.5 µM.

Turning to `O=C(O)[C@H]1CCCCCN1C(=O)c1ncnc2[nH]ccc12`, the 50% inhibitory concentration (IC50) is above 124 µM.

Turning to `Cc1[nH]c2ncnc(NC(=O)CCc3ccccc3)c2c1C`, the IC50 is above 99.5 µM.

`CC(C)[C@@H](CN1CCCCC1)Nc1ncnc2[nH]ccc12` gave a half-maximal inhibitory concentration (IC50) above 99.5 µM.

As for `C[C@H]1C[C@H]1c1nnc(Nc2ccc([C@@H](CC(=O)O)NC(=O)c3c[nH]c4ncncc34)cc2)o1`, the IC50 is 85.2 µM and 97 µM.
